# Results published in patent publication US20240409585A1, “MACROCYCLIC IMMUNOMODULATORS” (priority 2021, published 2024).
# Bridge positions count the residues as written; N and C are the ends. Square brackets hold non-standard residues; d marks the D form. Peptide text beside a SMILES is read from it. * marks the point of attachment. ξ: configuration not given here. dPhe(4-NO2) = N[C@H](Cc1ccc([N+](=O)[O-])cc1)C(=O)O; Phe(4-COOH) = N[C@@H](Cc1ccc(C(=O)O)cc1)C(=O)O; Asp(3,3-Me2) = CC(C)(C(=O)O)[C@H](N)C(=O)O; Bip = N[C@@H](Cc1ccc(-c2ccccc2)cc1)C(=O)O; Phe(3-Me) = Cc1cccc(C[C@H](N)C(=O)O)c1; Val(3-OH) = CC(C)(O)[C@H](N)C(=O)O; NMeF = CN[C@@H](Cc1ccccc1)C(=O)O; NMePhg = CN[C@H](C(=O)O)c1ccccc1; 4Pal = N[C@@H](Cc1ccncc1)C(=O)O; Cha = N[C@@H](CC1CCCCC1)C(=O)O; Ile(3ξ) = CCC(C)[C@H](N)C(=O)O; Thr(3ξ) = CC(O)[C@H](N)C(=O)O; Dap(Me) = CNC[C@H](N)C(=O)O; Carboxymethyl = O=C(O)C*; NMeA = CN[C@@H](C)C(=O)O; Orn = NCCC[C@H](N)C(=O)O; Dab = NCC[C@H](N)C(=O)O; Dap = NC[C@H](N)C(=O)O; ξC = NC(CS)C(=O)O; Acm = CC(=O)NC*
# Target: T1, PE-labeled human PD-L1-Ig binding to Jurkat cell line over-expressing human PD-1 (Jurkat-PD-1) (Homo sapiens, UniProt Q15116)
# T1 construct: expressed in transfected cells; host or cells: Jurkat
# T1 sequence (Q15116 25-288): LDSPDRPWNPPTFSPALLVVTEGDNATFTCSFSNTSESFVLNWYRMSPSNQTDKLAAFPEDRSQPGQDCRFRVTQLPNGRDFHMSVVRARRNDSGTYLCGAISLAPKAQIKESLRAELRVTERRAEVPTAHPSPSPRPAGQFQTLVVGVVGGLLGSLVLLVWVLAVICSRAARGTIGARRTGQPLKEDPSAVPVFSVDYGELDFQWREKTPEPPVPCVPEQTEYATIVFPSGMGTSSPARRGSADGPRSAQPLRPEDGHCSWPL
# Assay: Jurkat-PD-1 Cell Binding High-Content Screening Assay (CBA): Method 1
# Conditions: Jurkat-hPD-1 cells, PE-labeled PD-L1-Ig 20 nM final; read-out: Jurkat HPDL1 PD1 IC50 (uM) (Method 1)
row,IC50 [µM],Compound
1,0.02,CC(C)C[C@@H]1NC(=O)[C@H](Cc2c[nH]c3ccccc23)NC(=O)[C@H](CC(=O)O)NC(=O)[C@H](Cc2ccc(C(=O)O)cc2)NC(=O)[C@H](Cc2ccc(OCC(=O)O)cc2)NC(=O)CSC[C@@H](C(=O)N[C@H](C)C(N)=O)NC(=O)[C@H](CO)NC(=O)[C@H](C(C)(C)O)NC(=O)[C@H](CC2CCCCC2)NC(=O)[C@H](CCN)NC(=O)[C@@H](CC(C)C)NC(=O)[C@H](C)N(C)C(=O)[C@H](C(C)(C)O)NC(=O)[C@H](Cc2ccc(-c3ccccc3)cc2)NC1=O [Compound 1714] ({CH2CO}-Y(Carboxymethyl)[Phe(4-COOH)]DWL[Bip][Val(3-OH)][NMeA][dL][Dab][Cha][Val(3-OH)]SC[dA]-NH2; thioether N-14)
2,0.03,CC(C)C[C@@H]1NC(=O)[C@H](CCN)NC(=O)[C@@H](CC(C)C)NC(=O)[C@H](c2ccccc2)N(C)C(=O)[C@H](C(C)C)NC(=O)[C@H](Cc2ccc(-c3ccccc3)cc2)NC(=O)[C@H](C(C)C)NC(=O)[C@H](Cc2c[nH]c3ccccc23)NC(=O)[C@H](CC(=O)O)NC(=O)[C@H](Cc2ccc(O)cc2)NC(=O)[C@H](CC(N)=O)NC(=O)CSC[C@@H](C(=O)N[C@@H](C)C(N)=O)NC(=O)[C@H]([C@@H](C)O)NC(=O)[C@H](C(C)C)NC1=O [Compound 1366] ({CH2CO}-NYDWV[Bip]V[NMePhg][dL][Dab]LVTCA-NH2; thioether N-14)
3,0.1,Cc1cccc(C[C@@H]2NC(=O)[C@H](CC(=O)O)NC(=O)[C@H](Cc3ccc(OCC(=O)O)cc3)NC(=O)[C@H](Cc3ccccc3)N(C)C(=O)CSC[C@@H](C(=O)N[C@@H](CCN)C(N)=O)NC(=O)[C@H](CO)NC(=O)[C@H](C(C)C)NC(=O)[C@H](CC3CCCCC3)NC(=O)[C@H](CCN)NC(=O)[C@@H](CC(C)C)NC(=O)[C@H](C)N(C)C(=O)[C@H](Cc3ccc(OCC(=O)O)cc3)NC(=O)[C@H](Cc3ccc(-c4ccccc4)cc3)NC(=O)[C@H](Cc3ccc(OCC(=O)O)cc3)NC2=O)c1 [Compound 1861] ({CH2CO}-[NMeF]Y(Carboxymethyl)D[Phe(3-Me)]Y(Carboxymethyl)[Bip]Y(Carboxymethyl)[NMeA][dL][Dab][Cha]VSC[Dab]-NH2; thioether N-14)
4,0.11,CC(C)C[C@@H]1NC(=O)[C@H](CCN)NC(=O)[C@@H](CC(C)C)NC(=O)[C@H](C)N(C)C(=O)[C@H](CCC(=O)O)NC(=O)[C@H](Cc2ccc(-c3ccccc3)cc2)NC(=O)[C@H](C(C)C)NC(=O)[C@H](Cc2c[nH]c3ccccc23)NC(=O)[C@H](CC(=O)O)NC(=O)[C@H](Cc2ccncc2)NC(=O)[C@H](CN)NC(=O)CSC[C@@H](C(=O)N[C@@H](C)C(N)=O)NC(=O)[C@H](CO)NC(=O)[C@H](C(C)C)NC1=O [Compound 1576] ({CH2CO}-[Dap][4Pal]DWV[Bip]E[NMeA][dL][Dab]LVSCA-NH2; thioether N-14)
5,0.11,CC(=O)NCSC[C@@H]1NC(=O)[C@H](Cc2cccc(C)c2)NC(=O)[C@H](CC(=O)O)NC(=O)[C@H](Cc2ccncc2)NC(=O)[C@H](Cc2ccc(OCC(=O)O)cc2)NC(=O)CSCC(C(=O)NCC(N)=O)NC(=O)[C@H](CSCNC(C)=O)NC(=O)[C@H](C(C)C)NC(=O)[C@H](CC(C)C)NC(=O)[C@H](CC(N)=O)NC(=O)[C@@H](CC(C)C)NC(=O)[C@H](C)N(C)C(=O)[C@H](C(C)C)NC(=O)[C@H](Cc2ccc(-c3ccccc3)cc2)NC1=O (stereo partly drawn) [Compound 1885] ({CH2CO}-Y(Carboxymethyl)[4Pal]D[Phe(3-Me)]C(Acm)[Bip]V[NMeA][dL]NLVC(Acm)[ξC]G-NH2; thioether N-14)
6,0.02,CC(C)C[C@@H]1NC(=O)[C@H](Cc2c[nH]c3ccccc23)NC(=O)[C@H](CC(=O)O)NC(=O)[C@H](Cc2ccc(O)cc2)NC(=O)[C@H](Cc2ccccc2)NC(=O)CSC[C@@H](C(=O)N[C@@H](C)C(N)=O)NC(=O)[C@H](CO)NC(=O)[C@H](CCCN)NC(=O)[C@H](CC(C)C)NC(=O)[C@H](CC(N)=O)NC(=O)[C@@H](CC(C)C)NC(=O)[C@H](C)N(C)C(=O)[C@H](C(C)C)NC(=O)[C@H](Cc2ccc(-c3ccccc3)cc2)NC1=O [Compound 1537] ({CH2CO}-FYDWL[Bip]V[NMeA][dL]NL[Orn]SCA-NH2; thioether N-14)
7,0.04,CC(C)C[C@@H]1NC(=O)[C@H](CCC(=O)O)NC(=O)[C@@H](CC(C)C)NC(=O)[C@H](C)N(C)C(=O)[C@H](CCCCN)NC(=O)[C@H](Cc2ccc(-c3ccccc3)cc2)NC(=O)[C@H](C(C)C)NC(=O)[C@H](Cc2c[nH]c3ccccc23)NC(=O)[C@H](CC(=O)O)NC(=O)[C@H](Cc2ccc(O)cc2)NC(=O)[C@H](Cc2ccncc2)NC(=O)CSC[C@@H](C(=O)N[C@@H](C)C(N)=O)NC(=O)[C@H](C(C)O)NC(=O)[C@H](C(C)C)NC1=O (stereo partly drawn) [Compound 2058] ({CH2CO}-[4Pal]YDWV[Bip]K[NMeA][dL]ELV[Thr(3ξ)]CA-NH2; thioether N-14)
8,0.01,CC(C)C[C@H]1NC(=O)[C@H](C)N(C)C(=O)[C@H](C(C)C)NC(=O)[C@H](Cc2ccc(-c3ccccc3)cc2)NC(=O)[C@H](C(C)C)NC(=O)[C@H](Cc2c[nH]c3ccccc23)NC(=O)[C@H](CC(=O)O)NC(=O)[C@H](Cc2ccc(O)cc2)NC(=O)[C@H](CC(N)=O)NC(=O)CSC[C@@H](C(=O)N[C@@H](C)C(N)=O)NC(=O)[C@H]([C@@H](C)O)NC(=O)[C@H](C(C)C)NC(=O)[C@H](CC2CCCCC2)NC(=O)[C@H](CCN)NC1=O [Compound 1296] ({CH2CO}-NYDWV[Bip]V[NMeA][dL][Dab][Cha]VTCA-NH2; thioether N-14)
9,0.03,Cc1cccc(C[C@@H]2NC(=O)[C@H](CC(=O)O)NC(=O)[C@H](Cc3ccc(OCC(=O)O)cc3)NC(=O)[C@H](Cc3ccncc3)NC(=O)CSC[C@@H](C(=O)N[C@@H](CCN)C(N)=O)NC(=O)[C@H](CC(N)=O)NC(=O)[C@H](C(C)(C)O)NC(=O)[C@H](CC3CCCCC3)NC(=O)[C@H](CCN)NC(=O)[C@@H](CC(C)C)NC(=O)[C@H](C)N(C)C(=O)[C@H](Cc3ccc(OCC(=O)O)cc3)NC(=O)[C@H](Cc3ccc(-c4ccccc4)cc3)NC(=O)[C@H](Cc3ccc(OCC(=O)O)cc3)NC2=O)c1 [Compound 2191] ({CH2CO}-[4Pal]Y(Carboxymethyl)D[Phe(3-Me)]Y(Carboxymethyl)[Bip]Y(Carboxymethyl)[NMeA][dL][Dab][Cha][Val(3-OH)]NC[Dab]-NH2; thioether N-14)
10,0.7,"Cc1cccc(C[C@@H]2NC(=O)[C@H](CC(=O)O)NC(=O)[C@H](Cc3ccc(OCC(=O)O)cc3)NC(=O)[C@H](CCN)NC(=O)CSC[C@@H](C(=O)N[C@H](C(N)=O)C(C)(C)C(=O)O)NC(=O)[C@H](CO)NC(=O)[C@H](C(C)(C)O)NC(=O)[C@H](CC3CCCCC3)NC(=O)[C@H](CCN)NC(=O)[C@@H](CC(C)C)NC(=O)[C@H](C)N(C)C(=O)[C@H](Cc3ccc(OCC(=O)O)cc3)NC(=O)[C@H](Cc3ccc(-c4ccccc4)cc3)NC(=O)[C@H](Cc3ccc(OCC(=O)O)cc3)NC2=O)c1 [Compound 1847] ({CH2CO}-[Dab]Y(Carboxymethyl)D[Phe(3-Me)]Y(Carboxymethyl)[Bip]Y(Carboxymethyl)[NMeA][dL][Dab][Cha][Val(3-OH)]SC[Asp(3,3-Me2)]-NH2; thioether N-14)"
11,0.3,CC(C)C[C@@H]1NC(=O)[C@H](CCCNC(=N)N)NC(=O)[C@@H](Cc2ccc([N+](=O)[O-])cc2)NC(=O)[C@H](C)N(C)C(=O)[C@H](CCCNC(=N)N)NC(=O)[C@H](Cc2ccc(-c3ccccc3)cc2)NC(=O)[C@H](C(C)C)NC(=O)[C@H](Cc2c[nH]c3ccccc23)NC(=O)[C@H](CC(=O)O)NC(=O)[C@H](Cc2ccc(O)cc2)NC(=O)[C@H](Cc2ccccc2)NC(=O)CSC[C@@H](C(=O)N[C@@H](C)C(N)=O)NC(=O)[C@H]([C@@H](C)O)NC(=O)[C@H](C(C)C)NC1=O [Compound 1102] ({CH2CO}-FYDWV[Bip]R[NMeA][dPhe(4-NO2)]RLVTCA-NH2; thioether N-14)
12,0.08,CC(C)C[C@@H]1NC(=O)[C@H](CCCNC(=N)N)NC(=O)[C@@H](CC(C)C)NC(=O)[C@H](C)N(C)C(=O)[C@H](CCCNC(=N)N)NC(=O)[C@H](Cc2ccc(-c3ccccc3)cc2)NC(=O)[C@H](C(C)C)NC(=O)[C@H](Cc2c[nH]c3ccccc23)NC(=O)[C@H](CC(=O)O)NC(=O)[C@H](Cc2ccc(O)cc2)NC(=O)[C@H](Cc2ccccc2)NC(=O)CSC[C@@H](C(=O)N[C@@H](C)C(N)=O)NC(=O)[C@H](CO)NC(=O)[C@H](C(C)C)NC1=O [Compound 1035] ({CH2CO}-FYDWV[Bip]R[NMeA][dL]RLVSCA-NH2; thioether N-14)
13,0.51,CC(C)C[C@@H]1NC(=O)[C@H](CCCNC(=N)N)NC(=O)[C@@H](Cc2ccccc2)NC(=O)[C@H](C)N(C)C(=O)[C@H](CCCNC(=N)N)NC(=O)[C@H](Cc2ccc(-c3ccccc3)cc2)NC(=O)[C@H](C(C)C)NC(=O)[C@H](Cc2c[nH]c3ccccc23)NC(=O)[C@H](CC(=O)O)NC(=O)[C@H](Cc2ccc(O)cc2)NC(=O)[C@H](CC(N)=O)NC(=O)CSC[C@@H](C(=O)NCC(N)=O)NC(=O)[C@H](CO)NC(=O)[C@H](C(C)C)NC1=O [Compound 1032] ({CH2CO}-NYDWV[Bip]R[NMeA][dF]RLVSCG-NH2; thioether N-14)
14,0.03,CC(C)C[C@@H]1NC(=O)[C@H](CCN)NC(=O)[C@@H](CC(C)C)NC(=O)[C@H](C)N(C)C(=O)[C@H](CCCNC(=N)N)NC(=O)[C@H](Cc2ccc(-c3ccccc3)cc2)NC(=O)[C@H](C(C)C)NC(=O)[C@H](Cc2c[nH]c3ccccc23)NC(=O)[C@H](CC(=O)O)NC(=O)[C@H](Cc2ccc(O)cc2)NC(=O)[C@H](CC(N)=O)NC(=O)CSC[C@@H](C(=O)N[C@@H](C)C(N)=O)NC(=O)[C@H]([C@@H](C)O)NC(=O)[C@H](C(C)C)NC1=O [Compound 1189] ({CH2CO}-NYDWV[Bip]R[NMeA][dL][Dab]LVTCA-NH2; thioether N-14)
15,0.02,CCC(C)[C@@H]1NC(=O)[C@H](Cc2ccc(-c3ccccc3)cc2)NC(=O)[C@H](C(C)C)NC(=O)[C@H](Cc2c[nH]c3ccccc23)NC(=O)[C@H](CC(=O)O)NC(=O)[C@H](Cc2ccc(OCC(=O)O)cc2)NC(=O)[C@H](CNC)NC(=O)CSC[C@@H](C(=O)N[C@@H](CC(N)=O)C(N)=O)NC(=O)[C@H](C(C)O)NC(=O)[C@H](C(C)C)NC(=O)[C@H](CC2CCCCC2)NC(=O)[C@H](CN)NC(=O)[C@@H](CC(C)C)NC(=O)[C@H](C)N(C)C1=O (stereo partly drawn) [Compound 2078] ({CH2CO}-[Dap(Me)]Y(Carboxymethyl)DWV[Bip][Ile(3ξ)][NMeA][dL][Dap][Cha]V[Thr(3ξ)]CN-NH2; thioether N-14)
